Data set [1] has as its system A549. Description: Inhibition of Nrf2 5'-untranslated region guanine-rich DNA sequence in human A549 cells assessed as potentiation of etoposide-induced cytotoxicity by measuring increase in ROS production at 10 nM after 24 hrs by DCFH-DA based assay. The format is cell-based.
The subject of data set [2] is A549. Description: Inhibition of Nrf2 5'-untranslated region guanine-rich DNA sequence in human A549 cells assessed as potentiation of etoposide-induced cytotoxicity by measuring decrease in cell viability at 10 nM after 24 hrs by MTT assay. The format is cell-based. Background: Tetrazolium dyes change colour on reduction, which living cells bring about.
Data set [3] in a line: Stabilization of ssGQPLEX-G/T-1,2,3,4 DNA by circular dichroism method. For orientation: Circular dichroism is widely used to follow secondary structure.
Data set [4] is described as follows: Stabilization of ssGQPLEX-G/T-2,4 DNA (unknown origin) by circular dichroism method.
The nature of data set [5]: Stabilization of ssGQPLEX-G/T-1,3 DNA (unknown origin) by circular dichroism method.
The nature of data set [6]: Stabilization of ssGQPLEX-delta3,4 DNA lacking third and fourth G blocks (unknown origin) by circular dichroism method.
The nature of data set [7]: Stabilization of ssGQPLEX-delta1,2 DNA lacking first and second G blocks (unknown origin) by circular dichroism method.
A short description of data set [8]: Binding affinity to ssGQPLEX DNA (unknown origin) assessed as dissociation constant by isothermal titration calorimetric method. (In general: Isothermal titration calorimetry measures the heat released or taken up as one component is titrated into another.)
A short description of data set [9]: Stabilization of dsGQPLEX DNA (unknown origin) by circular dichroism method.
The nature of data set [10]: Stabilization of ssGQPLEX DNA (unknown origin) assessed as increase in the peak of 264 nm wavelength by circular dichroism method.
Data set [11] relates to A549. Description: Inhibition of Nuclear factor erythroid 2-related factor 2 5'-untranslated region guanine-rich DNA sequence in human A549 cells assessed as reduction in NRF2 mRNA levels at 10 nM after 12 to 36 hrs by RT-PCR analysis. The format is cell-based.
In data set [12] the test system is A549. As to the kind of experiment: Inhibition of Nuclear factor erythroid 2-related factor 2 5'-untranslated region guanine-rich DNA sequence in human A549 cells assessed as suppression of AKR1B10 gene expression at 10 nM measured up to 48 hrs by RT-PCR analysis. The data set is classed as cell-based.
The subject of data set [13] is A549. As to the kind of experiment: Inhibition of Nuclear factor erythroid 2-related factor 2 5'-untranslated region guanine-rich DNA sequence in human A549 cells assessed as suppression of AKR1C3 gene expression at 10 nM measured up to 48 hrs by RT-PCR analysis. The data set is classed as cell-based.
The subject of data set [14] is A549. Description: Inhibition of Nuclear factor erythroid 2-related factor 2 5'-untranslated region guanine-rich DNA sequence in human A549 cells assessed as suppression of GCLC gene expression at 10 nM measured up to 48 hrs by RT-PCR analysis. The format is cell-based.
Data set [15] deals with A549. Description: Cytotoxicity against human A549 cells at 1 nM to 10 uM after 24 hrs by MTT assay. The data set is classed as cell-based. The settings on record: a549, 24 h, 0.001 µM.
The subject of data set [16] is A549. As to the kind of experiment: Inhibition of Nuclear factor erythroid 2-related factor 2 5'-untranslated region guanine-rich DNA sequence in human A549 cells assessed as reduction in Nrf2 protein level at 10 nM incubated for 12 to […] hrs by Western blot analysis. The format is cell-based.
The test system of data set [17] is A549. Description: Inhibition of Nrf2 5'-untranslated region guanine-rich DNA sequence in human A549 cells assessed as potentiation of etoposide-induced cytotoxicity by measuring increase in apoptosis at 10 nM after 24 hrs by TUNEL assay. The data set is classed as cell-based.
Data set [18] relates to A549. As to the kind of experiment: Inhibition of Nrf2 5'-untranslated region guanine-rich DNA sequence in human A549 cells assessed as potentiation of etoposide-induced apoptosis by measuring increase cleaved caspase-3 protein level in at 10 nM after 24 hrs by Western blot analysis. The format is cell-based.
For data set [19], the system named is A549. Description: Inhibition of Nrf2 5'-untranslated region guanine-rich DNA sequence in human A549 cells assessed as potentiation of etoposide-induced apoptosis by measuring increase cleaved PARP protein level in at 10 nM after 24 hrs by Western blot analysis. The format is cell-based.

Each structure is given as a SMILES string. Calls of active or inactive are those of the source. No cut-off for these calls is given here.

As to `COC(=O)C[C@](O)(CCCC(C)(C)O)C(=O)O[C@@H]1C(OC)=C[C@]23CCCN2CCc2cc4c(cc2[C@H]13)OCO4` [OMACETAXINE MEPESUCCINATE], the inhibition entry in the data set with A549 [1], in the data set on A549 [2], in the data set with A549 [11], in the data set with A549 [12], in the data set with A549 [13] and in the data set with A549 [14] was “Active” in each case. The inhibition entry with A549 [16], with A549 [17], with A549 [18] and with A549 [19] was “Active” throughout. Moreover, the outcome in [3], in data set [4], in [5], in [6], in [7] and in data set [9] was inactive. Besides, the dissociation constant (Kd) – broadly, a measure of binding affinity in units of concentration – in data set [8] turned out to be 17 µM. For the same compound, the result in data set [10] was Active. Also, the Activity entry in the data set with A549 [15] was “Non-Toxic”.

These data come from ChEMBL document CHEMBL4433256, “Homoharringtonine stabilizes secondary structure of guanine-rich sequence existing in the 5'-untranslated region of Nrf2” (Bioorg Med Chem Lett, 2019).
